Results published in US8318207B2, “Encapsulation and controlled release of small molecules for intracellular delivery using thermally responsive nanocapsules” (University of South Carolina, priority 2009, dated 2012).

Assays:
NIH 3T3 fibroblasts = experiment: Long-term (3-day) cell proliferation; type: cell-based; details: 0.22 M extracellular trehalose, 40 min incubation (0.5 mg/ml nanocapsules where present)
Procedure: For long-term cell proliferation studies, cells were seeded in 33 mm Petri dishes at a relatively low density of 1×10^5 cells/dish in 1 ml medium. At 24 h, the cells were exposed to nanocapsules in the same way as that described above for immediate cell viability studies. After cold shock, the cells were further cultured for 3 days to monitor their proliferation (long-term toxicity). This was done by taking at least 10 representative images of the samples every day including the day (taken as day 0) when the cells were exposed to nanocapsules. The total number of cells in each image were counted automatically using NIH ImageJ. […] The collagen production of cells exposed to 0 M trehalose and 0 mg/ml nanocapsules (control), 0.22 M extracellular trehalose and 0 mg/ml nanocapsules (trehalose without NE), and 0.22 M extracellular trehalose and 0.5 mg/ml extracellular nanocapsules (nanoencapsulated with trehalose) was quantified using the Sircol™ Assay kit (Biocolor, Belfast, N. Ireland). […] The absorbance at 540 nm wavelength of the dye was then measured using a BioTek Synergy 2 microplate reader (Winooski, Vt.). Collagen concentration in the collected medium was quantified by comparing its absorbance subtracted with the absorbance of the blank sample with that of the standards.

[1] = Nanoencapsulation and controlled release of trehalose (dialysis, trehalose assay kit); type: physicochemical
Procedure: The resultant freeze-dried mixture of extra-capsular trehalose and trehalose-loaded nanocapsules was either used immediately or stored at −20° C. for future use.
To determine whether trehalose can be withheld in the nanocapsule at 37° C. for controlled release, the freeze-dried mixture of trehalose and trehalose-loaded nanocapsules was preheated to 37° C. and dissolved in 2 ml warm water at 37° C. in a 15 ml centrifuge tube. The final overall trehalose (i.e., trehalose both inside and outside the nanocapsules) concentration in the solution was 15% (w/v) and the corresponding nanocapsule (excluding the encapsulated trehalose) concentration was 10 mg/ml. Therefore, the total amount of trehalose and nanocapsules (excluding the encapsulated trehalose) in the 2 ml solution was 0.3 and 0.02 g, respectively. The solution in the centrifuge tube was then transferred either after cooling at 22° C. (i.e., cold shocking) for 15 min or immediately into a Spectra/Por dialysis bag (MWCO, 50 kDa) and placed in a beaker containing 1 L of deionized water kept warm at 37° C. with constant stirring using a hotplate/stirrer for 5 hr. It is expected that the 15 min cooling at 22° C. followed by heating at 37° C. in the beaker should result in a quick release of nanoencapsulated trehalose as a result of the more than 15 times of volume expansion and contraction in response to the temperature variation. Control experiments were performed similarly except that 2 ml of 15% (w/v) pure trehalose solution (i.e., in the absence of nanocapsules) was used in the dialysis tube. […] Trehalose concentration in the 0.5 ml samples was determined using a trehalose assay kit (Megazyme Co., Wicklow, Ireland) by following the manufacturer's instructions. […] The absorbance at 340 nm of NADPH was then measured using a Shimazu (Columbia, Md.) UV-2101PC spectrophotometer to determine the amount of trehalose in the original sample.

3T3 fibroblasts [2] = experiment: Nanocapsule assisted intracellular delivery of trehalose; type: cell-based; details: extracellular trehalose 0.165 M (nanocapsule 0.375 mg/ml where present), 40 min at 37° C.
Procedure: The procedures performed for cellular uptake of the trehalose loaded nanocapsules was the same as that described in section 2.6 for the uptake of empty nanocapsules. […] The cells were then detached/lysed in deionized water with the aid of a cell scraper. The cells were further lysed using three cycles of freezing and thawing in liquid nitrogen and 37° C. water bath, respectively. The lysed cell suspension was homogenized for 10 min by sonication using a Branson ultrasonic cleaner (Danbury, Conn.) followed by a brief vortex-mixing. After centrifuging at 10,000 g for 10 min, the supernatant of each sample was divided into two aliquots. One aliquot was used to determine trehalose concentration in the sample using the trehalose assay kit (Megazyme Co. Wicklow, Ireland) as described in the previous section. […] The other aliquot was used to determine cell density in the sample based on its DNA content measured using a method described in Dunn et. al, Long-term in vitro function of adult hepatocytes in a collagen sandwich configuration, Biotechnol Prog 1991 May-Jun;7(3):237-245. […] With the trehalose concentration and cell density in the sample being measured, the total amount of intracellular trehalose and the total number of cells (and thus the total osmotically active cell volume) can be calculated. Therefore, the intracellular trehalose concentration can be determined.

3T3 fibroblasts [3] = experiment: Collagen production, Sircol assay; type: cell-based; details: 0.22 M extracellular trehalose, 40 min incubation (0.5 mg/ml nanocapsules where present)
Procedure: The immediate cell viability, proliferation, and collagen production of 3T3 cells exposed to 0.22 M extracellular trehalose and 0.5 mg/ml nanocapsules (loaded with trehalose) (As will be shown later in Results and Discussion that the intracellular trehalose is ˜0.3 M under this loading condition) were further studied to test the effectiveness of the nanocapsule based approach for intracellular delivery of trehalose. Immediate cell viability and proliferation of the 3T3 cells after loading with trehalose were studied in the same way as that described for 3T3 cells loaded with empty nanocapsules in section 2.6. The collagen production of cells exposed to 0 M trehalose and 0 mg/ml nanocapsules (control), 0.22 M extracellular trehalose and 0 mg/ml nanocapsules (trehalose without NE), and 0.22 M extracellular trehalose and 0.5 mg/ml extracellular nanocapsules (nanoencapsulated with trehalose) was quantified using the Sircol™ Assay kit (Biocolor, Belfast, N. Ireland). To do this, the cells treated under the three conditions were further cultured for 3 days. […] The absorbance at 540 nm wavelength of the dye was then measured using a BioTek Synergy 2 microplate reader (Winooski, Vt.). Collagen concentration in the collected medium was quantified by comparing its absorbance subtracted with the absorbance of the blank sample with that of the standards.

## OC[C@H]1O[C@H](O[C@H]2O[C@H](CO)[C@@H](O)[C@H](O)[C@H]2O)[C@H](O)[C@@H](O)[C@@H]1O [Trehalose w/o NE, α,α-trehalose]
NIH 3T3 fibroblasts
  3 day cell proliferation vs control: No significant differences
[1]; 2 ml of 15% (w/v) into 1 L deionized water at 37° C.
  time for trehalose release from the dialysis bag to reach equilibrium: approximately 2 hours
[1]; after one hour, 37° C.
  trehalose released from the dialysis tube: more than 80%
[1]; at 2 hr, 37° C., no cold shock
  trehalose concentration in the 1 L solution outside the dialysis tube: 0.3 g/L
3T3 fibroblasts [2]
  intracellular trehalose concentration: 0.02 M
3T3 fibroblasts [3]
  3 day collagen production vs control: No significant differences
